In article PMC12645437, “Orthogonal IMiD-Degron Pairs Induce Selective Protein Degradation in Cells” (ACS Chemical Biology, 2025):

Target: T1, WEIS-EGFP degron in Jurkat cells (Homo sapiens, UniProt Q96SW2+Q9UKT9, N149E/Q147W/Q150I)
T1 construct: pLVX-Sprout-IKZF3 130-189aa Q147W N149E Q150I (WEIS); expressed in transfected cells
Assay: Time-course EGFP/mCherry flow cytometry degradation assay
Assay type: cell-based
Method: 6 WEIS degron and compound 23 selectivity. Jurkat, ESC, and MM.1S cells were treated for 16 h with the corresponding compound or DMSO control, and the protein abundance was analyzed using multiplexed TMTpro quantification mass spectrometry. […] (A) Jurkat cells were treated with compound 23. (B). Jurkat cells treated with pomalidomide. (C) ESCs were treated with compound 23. (D) ESCs were treated with pomalidomide. (E) MM.1S cells treated with compound 23. […] Values shown are the mean of three biological replicates. WEIS degron and compound 23 kinetic degradation profile. (G) Jurkat cells were transduced with the WEIS-EGFP degron, then incubated with a concentration range of compound 23 (1 pM – 10 μM) for 1–24 h [as shown] and analyzed using flow cytometry. The DMSO-normalized ratiometric values of EGFP/mCherry are shown. (H). The half-maximal (DC50) values from the assay in […] are shown. Mean and SD values are plotted from three biological replicates. […] (J) Jurkat cells were lentivirally transduced with TRIM28 with either N-terminal or C-terminal WEIS degron tag (or untagged control) and HiBit peptide tag, then incubated with a concentration curve of compound 23 (100 pM – 10 μM) for 24 h and analyzed using a HiBit luminescence assay. […] HEK293T cells were lentivirally transduced with one of three POI fusion constructs–NanoLuc, CDK9, or HPRT1–with an N-terminal HA tag and a C-terminal WEIS degron, then incubated with a concentration range of compound 23 (1 nM – 10 μM) for 18 h and analyzed using HA antibody immunoblotting. […] HEK293T cells were lentivirally transduced with NanoLuc with an N-terminal HA tag and a C-terminal WEIS degron, then incubated with a concentration curve of compound 23 (1 nM – 10 μM) for either 6 or 18 h, and analyzed using a NanoGlo luminescence assay. […]
We performed a time-course experiment in which Jurkat cells transduced with the WEIS-EGFP degron were treated with compound 23 at a range of concentrations (1 pM–10 μM) at a selection of time points, and the ratiometric degradation values of EGFP/mCherry were assessed using flow cytometry, as above. […]

T1 sequence (Q9UKT9 130-189 Q147W/N149E/Q150I): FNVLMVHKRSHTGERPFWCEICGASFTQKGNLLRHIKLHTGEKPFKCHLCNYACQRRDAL
T1 sequence (Q96SW2 whole entry): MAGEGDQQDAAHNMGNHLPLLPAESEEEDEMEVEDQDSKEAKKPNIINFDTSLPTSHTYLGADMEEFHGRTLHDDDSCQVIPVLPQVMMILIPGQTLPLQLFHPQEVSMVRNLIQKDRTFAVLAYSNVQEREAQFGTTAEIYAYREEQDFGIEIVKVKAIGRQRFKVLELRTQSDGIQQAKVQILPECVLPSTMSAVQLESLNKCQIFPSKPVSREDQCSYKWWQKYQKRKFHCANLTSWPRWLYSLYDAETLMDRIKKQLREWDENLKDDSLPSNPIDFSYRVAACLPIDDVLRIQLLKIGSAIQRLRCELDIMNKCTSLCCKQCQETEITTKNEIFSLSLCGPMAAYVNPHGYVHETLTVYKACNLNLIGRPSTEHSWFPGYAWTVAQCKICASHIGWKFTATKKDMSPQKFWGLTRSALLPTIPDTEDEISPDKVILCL
T1 sequence (Q16531 whole entry partner): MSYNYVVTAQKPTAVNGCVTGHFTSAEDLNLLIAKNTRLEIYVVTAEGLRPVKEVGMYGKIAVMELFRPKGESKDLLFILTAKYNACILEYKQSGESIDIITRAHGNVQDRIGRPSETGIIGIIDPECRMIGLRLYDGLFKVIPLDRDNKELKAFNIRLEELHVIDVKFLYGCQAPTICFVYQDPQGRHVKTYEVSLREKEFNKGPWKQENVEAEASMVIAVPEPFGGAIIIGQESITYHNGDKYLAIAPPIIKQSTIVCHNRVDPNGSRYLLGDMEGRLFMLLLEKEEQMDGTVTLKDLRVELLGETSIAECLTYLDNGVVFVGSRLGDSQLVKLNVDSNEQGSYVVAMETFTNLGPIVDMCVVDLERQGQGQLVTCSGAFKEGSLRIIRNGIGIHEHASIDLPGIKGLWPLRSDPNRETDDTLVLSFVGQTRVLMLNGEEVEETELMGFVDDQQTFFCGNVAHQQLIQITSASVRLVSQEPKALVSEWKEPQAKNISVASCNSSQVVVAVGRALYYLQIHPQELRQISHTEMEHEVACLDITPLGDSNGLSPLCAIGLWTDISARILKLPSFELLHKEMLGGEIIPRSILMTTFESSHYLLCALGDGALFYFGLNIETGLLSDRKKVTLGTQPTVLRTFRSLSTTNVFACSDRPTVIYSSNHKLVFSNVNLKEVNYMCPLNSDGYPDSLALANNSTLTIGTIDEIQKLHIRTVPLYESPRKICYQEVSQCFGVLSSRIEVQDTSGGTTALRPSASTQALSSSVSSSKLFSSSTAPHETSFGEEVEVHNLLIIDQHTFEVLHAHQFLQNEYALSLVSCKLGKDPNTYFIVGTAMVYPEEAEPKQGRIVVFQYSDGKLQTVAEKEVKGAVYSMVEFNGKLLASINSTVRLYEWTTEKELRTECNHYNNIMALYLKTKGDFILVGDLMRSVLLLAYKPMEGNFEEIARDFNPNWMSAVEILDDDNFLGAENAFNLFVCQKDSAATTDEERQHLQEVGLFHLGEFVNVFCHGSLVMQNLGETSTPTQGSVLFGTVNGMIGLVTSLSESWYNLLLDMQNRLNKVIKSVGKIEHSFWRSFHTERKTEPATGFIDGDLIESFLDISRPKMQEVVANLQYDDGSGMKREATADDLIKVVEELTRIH

CN1CCN(c2ccc3c(c2)C(=O)N(C2CCC(=O)NC2=O)C3=O)CC1 (stereo not drawn) [Compound 23]
DC50 (time point 1 h): 10.3 nM | DC50 (time point 6 h): 2.3 nM | DC50 (time point 24 h): 18.3 nM
